The text below walks through data of patent US20260137677A1, “PROTACS USEFUL AGAINST THE MAIN PROTEASE SARS-COV-2” (Tocris Cookson Limited, priority 2022, published 2026).

Structures are written as SMILES. Like-named read-outs stand apart in the source and are kept apart here.

The target of assay [1] is T1, recombinant SARS-CoV-2 main protease (Mpro) (Severe acute respiratory syndrome coronavirus 2, UniProt P0DTD1).
T1 construct: the main protease (Mpro; also called 3CLpro) which has an essential role in processing the polyproteins
The assay is described as follows: biochemical. Particulars: FRET assay, Mpro 50 nM, substrate 10 μM.

Assay [2] deals with SARS-CoV-2 (SARS-CoV2/ZG/297-20) in Vero E6 cells. The assay is described as follows: microbe, parasite or virus in culture. Format: cell-based. Particulars: for inhibition at 10 µM / inhibition at 50 µM: Severe acute respiratory syndrome coronavirus 2, Vero C1008, 72 h; for inhibition at 10 µM: read-out: Antiviral Activity 10 uM; for inhibition at 50 µM: read-out: Antiviral Activity 50 uM.

Assay [3] has the same test system. The assay is described as follows: Plaque reduction assay in Vero E6 cells. The format is cell-based. A general note: Plaque reduction counts the foci of infection that form in a cell layer.

Consider `O=C1CCC(N2C(=O)c3cccc(OCCCCCCCCNC(=O)c4ccc5cncc(N6C(=O)NC7(CC(c8ccccc8Cl)C7)C6=O)c5c4)c3C2=O)C(=O)N1` (stereo not shown) [Compound C10778N, 4-(2-(2-chlorophenyl)-6,8-dioxo-5,7-diazaspiro[3.4]octan-7-yl)-N-(8-((2-(2,6-dioxopiperidin-3-yl)-1,3-dioxoisoindolin-4-yl)oxy)octyl)isoquinoline-6-carboxamide], for which, in assay [1], the IC50 (in general, the point on the concentration scale where inhibition reaches its midpoint) was below 100 nM. In addition, in assay [2], the inhibition at 10 µM was below 75% and the inhibition at 50 µM is above 75%. For the same compound, the EC50 (commonly the concentration giving half of the maximal effect) in assay [2] (Severe acute respiratory syndrome coronavirus 2, Vero C1008, Vero E6 infected with SARS-CoV-2 at an MOI of 0.05, read-out: EC50 in antiviral assay) was found to be 1700 nM. The “reduction of viable virus in plaque reduction assay (in words)” value in assay [3] is on record as “efficiently reduces viable virus”.

Take `O=C1CCC(N2C(=O)c3cccc(OCCCCCCCCC(=O)Nc4cccn([C@@H](CC5CC5)C(=O)N[C@@H](C[C@@H]5CCNC5=O)C(=O)C(=O)NCc5ccccc5)c4=O)c3C2=O)C(=O)N1` (stereo partly drawn) [BT153, N-(1-((S)-1-(((S)-4-(benzylamino)-3,4-dioxo-1-((S)-2-oxopyrrolidin-3-yl)butan-2-yl)amino)-3-cyclopropyl-1-oxopropan-2-yl)-2-oxo-1,2-dihydropyridin-3-yl)-9-((2-(2,6-dioxopiperidin-3-yl)-1,3-dioxoisoindolin-4-yl)oxy)nonanamide]: in assay [1], the IC50 was below 100 nM. In assay [2], the inhibition at 10 µM was below 75% and the inhibition at 50 µM is below 75%. Moreover, the EC50 in assay [2] (Severe acute respiratory syndrome coronavirus 2, Vero C1008, read-out: EC50 in antiviral assay) was 3200 nM. Moreover, the “reduction of viable virus in plaque reduction assay (in words)” value in assay [3] is recorded as “efficient reduction of viable virus”.

Turning to `O=C(COc1ccc(C2CCC(=O)NC2=O)cc1)NCCCCCNC(=O)c1ccc2c(N3C(=O)NC4(CC(c5ccccc5Cl)C4)C3=O)cncc2c1` (stereo not shown) [Compound C10778X, 4-(2-(2-chlorophenyl)-6,8-dioxo-5,7-diazaspiro[3.4]octan-7-yl)-N-(5-(2-(4-(2,6-dioxopiperidin-3-yl)phenoxy)acetamido)pentyl)isoquinoline-7-carboxamide], the IC50 in assay [1] is below 100 nM. Further, in assay [2], the inhibition at 10 µM was below 0% and the inhibition at 50 µM is below 0%.

As for `O=C1CCC(N2C(=O)c3ccc(N4CCN(CC5CCN(C(=O)[C@H](NC(=O)[C@@H](c6cccnc6)N(C(=O)c6ccco6)c6ccc(-c7ccccc7)cc6)c6ccccc6)CC5)CC4)cc3C2=O)C(=O)N1` (single isomer, unassigned) [TS470], the IC50 in assay [1] is below 100 nM. Besides, in assay [2], the inhibition at 10 µM is below 25% and the inhibition at 50 µM was below 50%.
